The compounds below were run on sarcoma 180 (assay: Effects against sarcoma 180 (survival rate, ICR mice)). Details: 1 mg per mouse i.p., four days before 1×10^5 cells of sarcoma 180 i.p.; vs physiological saline control.
Format: in vivo

Row | Structure (SMILES) | Survival Rate (T/C)
1 | CCCCCCCCCCCCCCOP(=O)([O-])OCC[N+](C)(C)C [Production Example 1, Tetradecyl 2-trimethylammonioethyl phosphate] | 217
2 | CCCCCCCCCCCCCCCCCCOP(=O)([O-])OCC[N+](C)(C)C [Production Example 6, Stearyl 2-trimethylammonioethyl phosphate] | 200
3 | CCCCCCCCCCCCCCOP(=O)([O-])OCC[n+]1ccccc1 [Production Example 2, Tetradecyl 2-pyridinioethyl phosphate] | 152
4 | CCCCCCCC/C=C\CCCCCCCCOP(=O)([O-])OCC[N+](C)(C)C [Production Example 3, Oleyl 2-trimethylammonioethyl phosphate] | 302
5 | CCCCCCCC/C=C\CCCCCCCCOP(=O)([O-])OCC[n+]1ccccc1 [Production Example 4, Oleyl 2-pyridinioethyl phosphate] | 308

These compounds were tested on MM46 carcinoma (assay: Effects against MM46 (surviving mice, C3H/He mice)). Details: 24th day after transplantation of 1×10^4 MM46 cells i.p.; 250 μg i.p., eight times in total.
Format: in vivo
Method: To each of C3H/He mice group was transplanted intraperitoneally 1×10^4 cells of MM46 carcinoma. Four times from five days to two days before the transplantation and four times from two days to five days after the transplantation, eight times in total, 250 μg of the test compound dissolved in 0.2 ml of physiological saline was administered intraperitoneally. The number of mice surviving on the 24th day after transplantation of the carcinoma cells was compared with that of the control group administered with saline.

Row | Structure (SMILES) | Surviving mice/Test mice
6 | CCCCCCCC/C=C\CCCCCCCCOP(=O)([O-])OCC[N+](C)(C)C [Production Example 3, Oleyl 2-trimethylammonioethyl phosphate] | 3/5
7 | CCCCCCCC/C=C\CCCCCCCCOP(=O)([O-])OCC[n+]1ccccc1 [Production Example 4, Oleyl 2-pyridinioethyl phosphate] | 2/5

What follows are compounds tested on Aspergillus niger IFO-6341 (assay: Antifungal activity, MIC). Details: IFO6341, test organism 1, 1% glucose-bouillon agar medium, serial dilution method.
Format: cell-based
Method: The antimycotic (antifungal) activity values as shown in Table 3 were assayed on various organisms including phytopathogenic microorganisms using 1% glucose-bouillon agar medium, and the minimum inhibitory concentration (MIC) was determined by the serial dilution method.

Row | Structure (SMILES) | MIC [µg/mL]
8 | CCCCCCCCCCCCCCOP(=O)([O-])OCC[N+](C)(C)C [Production Example 1, Tetradecyl 2-trimethylammonioethyl phosphate] | 12.5
9 | CCCCCCCCCCCCCCCCCCOP(=O)([O-])OCC[N+](C)(C)C [Production Example 6, Stearyl 2-trimethylammonioethyl phosphate] | 25
10 | CCCCCCCCCCCCCCOP(=O)([O-])OCC[n+]1ccccc1 [Production Example 2, Tetradecyl 2-pyridinioethyl phosphate] | 25
11 | CCCCCCCC/C=C\CCCCCCCCOP(=O)([O-])OCC[N+](C)(C)C [Production Example 3, Oleyl 2-trimethylammonioethyl phosphate] | 12.5
12 | CCCCCCCC/C=C\CCCCCCCCOP(=O)([O-])OCC[n+]1ccccc1 [Production Example 4, Oleyl 2-pyridinioethyl phosphate] | 50

The compounds below were run on Penicillium citrinum IFO-6352 (assay: Antifungal activity, MIC). Details: IFO6352.
Format: cell-based

Row | Structure (SMILES) | MIC [µg/mL]
13 | CCCCCCCCCCCCCCOP(=O)([O-])OCC[N+](C)(C)C [Production Example 1, Tetradecyl 2-trimethylammonioethyl phosphate] | 6.25
14 | CCCCCCCCCCCCCCCCCCOP(=O)([O-])OCC[N+](C)(C)C [Production Example 6, Stearyl 2-trimethylammonioethyl phosphate] | 25

Same assay, conditions: IFO6352, test organism 2, 1% glucose-bouillon agar medium, serial dilution method, read-out: MIC

Row | Structure (SMILES) | MIC [µg/mL]
15 | CCCCCCCCCCCCCCOP(=O)([O-])OCC[n+]1ccccc1 [Production Example 2, Tetradecyl 2-pyridinioethyl phosphate] | 12.5
16 | CCCCCCCC/C=C\CCCCCCCCOP(=O)([O-])OCC[N+](C)(C)C [Production Example 3, Oleyl 2-trimethylammonioethyl phosphate] | 25
17 | CCCCCCCC/C=C\CCCCCCCCOP(=O)([O-])OCC[n+]1ccccc1 [Production Example 4, Oleyl 2-pyridinioethyl phosphate] | 25

What follows are compounds tested on Saccharomyces cerevisiae IFO-0209 (assay: Antifungal activity, MIC). Details: IFO0209.
Format: cell-based

Row | Structure (SMILES) | MIC [µg/mL]
18 | CCCCCCCCCCCCCCOP(=O)([O-])OCC[N+](C)(C)C [Production Example 1, Tetradecyl 2-trimethylammonioethyl phosphate] | 12.5
19 | CCCCCCCCCCCCCCCCCCOP(=O)([O-])OCC[N+](C)(C)C [Production Example 6, Stearyl 2-trimethylammonioethyl phosphate] | 12.5
20 | CCCCCCCCCCCCCCOP(=O)([O-])OCC[n+]1ccccc1 [Production Example 2, Tetradecyl 2-pyridinioethyl phosphate] | 50

Same assay, conditions: IFO0209, test organism 3, 1% glucose-bouillon agar medium, serial dilution method, read-out: MIC

Row | Structure (SMILES) | MIC [µg/mL]
21 | CCCCCCCC/C=C\CCCCCCCCOP(=O)([O-])OCC[N+](C)(C)C [Production Example 3, Oleyl 2-trimethylammonioethyl phosphate] | 6.25
22 | CCCCCCCC/C=C\CCCCCCCCOP(=O)([O-])OCC[n+]1ccccc1 [Production Example 4, Oleyl 2-pyridinioethyl phosphate] | 25

Each compound was assayed on Pyricularia oryzae IFO-5279 (assay: microbe, parasite or virus in culture). Details: IFO5279.
Format: cell-based

Row | Structure (SMILES) | MIC [µg/mL]
23 | CCCCCCCCCCCCCCOP(=O)([O-])OCC[N+](C)(C)C [Production Example 1, Tetradecyl 2-trimethylammonioethyl phosphate] | 3.12
24 | CCCCCCCCCCCCCCCCCCOP(=O)([O-])OCC[N+](C)(C)C [Production Example 6, Stearyl 2-trimethylammonioethyl phosphate] | 6.25
25 | CCCCCCCCCCCCCCOP(=O)([O-])OCC[n+]1ccccc1 [Production Example 2, Tetradecyl 2-pyridinioethyl phosphate] | 3.12
26 | CCCCCCCC/C=C\CCCCCCCCOP(=O)([O-])OCC[N+](C)(C)C [Production Example 3, Oleyl 2-trimethylammonioethyl phosphate] | 1.56
27 | CCCCCCCC/C=C\CCCCCCCCOP(=O)([O-])OCC[n+]1ccccc1 [Production Example 4, Oleyl 2-pyridinioethyl phosphate] | 3.12

These compounds were tested on Helminthosporium oryzae IFO-7503 (assay: Antifungal activity, MIC). Details: Bipolaris oryzae, IFO7503.
Format: cell-based

Row | Structure (SMILES) | MIC [µg/mL]
28 | CCCCCCCCCCCCCCOP(=O)([O-])OCC[N+](C)(C)C [Production Example 1, Tetradecyl 2-trimethylammonioethyl phosphate] | 12.5
29 | CCCCCCCCCCCCCCCCCCOP(=O)([O-])OCC[N+](C)(C)C [Production Example 6, Stearyl 2-trimethylammonioethyl phosphate] | 50
30 | CCCCCCCCCCCCCCOP(=O)([O-])OCC[n+]1ccccc1 [Production Example 2, Tetradecyl 2-pyridinioethyl phosphate] | 25
31 | CCCCCCCC/C=C\CCCCCCCCOP(=O)([O-])OCC[N+](C)(C)C [Production Example 3, Oleyl 2-trimethylammonioethyl phosphate] | 12.5
32 | CCCCCCCC/C=C\CCCCCCCCOP(=O)([O-])OCC[n+]1ccccc1 [Production Example 4, Oleyl 2-pyridinioethyl phosphate] | 50

These compounds were tested on Gibberella fujiknroi (assay: Antifungal activity, MIC). Details: not given.
Format: cell-based

Row | Structure (SMILES) | MIC [µg/mL]
33 | CCCCCCCCCCCCCCOP(=O)([O-])OCC[N+](C)(C)C [Production Example 1, Tetradecyl 2-trimethylammonioethyl phosphate] | 25
34 | CCCCCCCCCCCCCCCCCCOP(=O)([O-])OCC[N+](C)(C)C [Production Example 6, Stearyl 2-trimethylammonioethyl phosphate] | 50
35 | CCCCCCCCCCCCCCOP(=O)([O-])OCC[n+]1ccccc1 [Production Example 2, Tetradecyl 2-pyridinioethyl phosphate] | 25
36 | CCCCCCCC/C=C\CCCCCCCCOP(=O)([O-])OCC[N+](C)(C)C [Production Example 3, Oleyl 2-trimethylammonioethyl phosphate] | 12.5

Same assay, conditions: test organism 6; 1% glucose-bouillon agar medium, serial dilution method; read-out: MIC

Row | Structure (SMILES) | MIC [µg/mL]
37 | CCCCCCCC/C=C\CCCCCCCCOP(=O)([O-])OCC[n+]1ccccc1 [Production Example 4, Oleyl 2-pyridinioethyl phosphate] | 25

Each compound was assayed on Botrytis cinerea IFO-5365 (assay: Antifungal activity, MIC). Details: IFO5365.
Format: cell-based

Row | Structure (SMILES) | MIC [µg/mL]
38 | CCCCCCCCCCCCCCOP(=O)([O-])OCC[N+](C)(C)C [Production Example 1, Tetradecyl 2-trimethylammonioethyl phosphate] | 25
39 | CCCCCCCCCCCCCCCCCCOP(=O)([O-])OCC[N+](C)(C)C [Production Example 6, Stearyl 2-trimethylammonioethyl phosphate] | 6.25
40 | CCCCCCCCCCCCCCOP(=O)([O-])OCC[n+]1ccccc1 [Production Example 2, Tetradecyl 2-pyridinioethyl phosphate] | 50

Same assay, conditions: IFO5365, test organism 7, 1% glucose-bouillon agar medium, serial dilution method, read-out: MIC

Row | Structure (SMILES) | MIC [µg/mL]
41 | CCCCCCCC/C=C\CCCCCCCCOP(=O)([O-])OCC[N+](C)(C)C [Production Example 3, Oleyl 2-trimethylammonioethyl phosphate] | 3.12
42 | CCCCCCCC/C=C\CCCCCCCCOP(=O)([O-])OCC[n+]1ccccc1 [Production Example 4, Oleyl 2-pyridinioethyl phosphate] | 6.25

What follows are compounds tested on Helminthosporium sigmoideum IFO-4867 (assay: Antifungal activity, MIC). Details: Nakataea oryzae, IFO4867.
Format: cell-based

Row | Structure (SMILES) | MIC [µg/mL]
43 | CCCCCCCCCCCCCCOP(=O)([O-])OCC[N+](C)(C)C [Production Example 1, Tetradecyl 2-trimethylammonioethyl phosphate] | 6.25
44 | CCCCCCCCCCCCCCCCCCOP(=O)([O-])OCC[N+](C)(C)C [Production Example 6, Stearyl 2-trimethylammonioethyl phosphate] | 3.12
45 | CCCCCCCC/C=C\CCCCCCCCOP(=O)([O-])OCC[N+](C)(C)C [Production Example 3, Oleyl 2-trimethylammonioethyl phosphate] | 1.56

Same assay, conditions: Nakataea oryzae, IFO4867; test organism 8; 1% glucose-bouillon agar medium, serial dilution method; read-out: MIC

Row | Structure (SMILES) | MIC [µg/mL]
46 | CCCCCCCCCCCCCCOP(=O)([O-])OCC[n+]1ccccc1 [Production Example 2, Tetradecyl 2-pyridinioethyl phosphate] | 12.5
47 | CCCCCCCC/C=C\CCCCCCCCOP(=O)([O-])OCC[n+]1ccccc1 [Production Example 4, Oleyl 2-pyridinioethyl phosphate] | 6.25

These compounds were tested on Colletctrichum lagenarium IFO-6207 (assay: Antifungal activity, MIC). Details: not given.
Format: cell-based

Row | Structure (SMILES) | MIC [µg/mL]
48 | CCCCCCCCCCCCCCOP(=O)([O-])OCC[N+](C)(C)C [Production Example 1, Tetradecyl 2-trimethylammonioethyl phosphate] | 3.12
49 | CCCCCCCCCCCCCCOP(=O)([O-])OCC[n+]1ccccc1 [Production Example 2, Tetradecyl 2-pyridinioethyl phosphate] | 3.12
50 | CCCCCCCC/C=C\CCCCCCCCOP(=O)([O-])OCC[n+]1ccccc1 [Production Example 4, Oleyl 2-pyridinioethyl phosphate] | 50

Same assay, conditions: test organism 9; 1% glucose-bouillon agar medium, serial dilution method; read-out: MIC

Row | Structure (SMILES) | MIC [µg/mL]
51 | CCCCCCCCCCCCCCCCCCOP(=O)([O-])OCC[N+](C)(C)C [Production Example 6, Stearyl 2-trimethylammonioethyl phosphate] | 100
52 | CCCCCCCC/C=C\CCCCCCCCOP(=O)([O-])OCC[N+](C)(C)C [Production Example 3, Oleyl 2-trimethylammonioethyl phosphate] | 50

The compounds below were run on Tetrahymena pyriformis W strain (assay: Antiprotozoal activity, MIC). Details: Tetrahymena pyriformis; broth dilution method, pH 7.0, 28° C., 44 to 48 hours; read-out: MIC against Tetrahymena pyriformis W strain.
Format: cell-based
Method: The antiprotozoal activity values as shown in Table 4 were assayed using Tetrahymena pyriformis W strain as the test organism and an assay medium composed of 20 g of tryptose peptone (manufactured by Difco), 1 g of yeast extract, 2 g of glucose, 1000 ml of distilled water and 10 ml of 1M phosphate buffer (pH 7.0). The incubation was continued at 28° C. for 44 to 48 hours and the minimum inhibitory concentration (MIC) of the compounds of this invention was determined by the broth dilution method.

Row | Structure (SMILES) | MIC [µg/mL]
53 | CCCCCCCCCCCCCCOP(=O)([O-])OCC[N+](C)(C)C [Production Example 1, Tetradecyl 2-trimethylammonioethyl phosphate] | 2
54 | CCCCCCCCCCCCCCCCCCOP(=O)([O-])OCC[N+](C)(C)C [Production Example 6, Stearyl 2-trimethylammonioethyl phosphate] | ≤ 1
55 | CCCCCCCCCCCCCCOP(=O)([O-])OCC[n+]1ccccc1 [Production Example 2, Tetradecyl 2-pyridinioethyl phosphate] | ≥ 4
56 | CCCCCCCC/C=C\CCCCCCCCOP(=O)([O-])OCC[N+](C)(C)C [Production Example 3, Oleyl 2-trimethylammonioethyl phosphate] | 0.4
